{
  "source": "patent US20070270350A1",
  "about": "“Methods and Compositions for the Prevention and Treatment of Inflammatory Diseases or Conditions” (MUSC FOUNDATION FOR RESEARCH DEVELOPMENT, priority 2003, published 2007)",
  "key": {"[1]": {"system": "rat model of focal cerebral ischemia (MCAO)", "assay": "Focal cerebral ischemia model (20 min MCAO, reperfusion)", "type": "in vivo", "details": "GSH up to 150 mg/kg body weight after the onset of ischemia", "procedure": "Animals. A total of 60 male Sprague-Dawley rats (Charles River Laboratories, Wilmington, Mass.) weighing 250-300 g were used in this study. All animals received humane care in compliance with the Medical University of South Carolina's guidance and the National Research Council's criteria for humane care as outlined in ‘Guide for the Care and Use of Laboratory Animals’. Body temperature was monitored by a rectal probe and maintained at 37±0.5° C. by a homeothermic blanket control unit (Harvard Apparatus, Holliston, Mass.). Cranial temperature and mean arterial blood pressure were measured by HSE Plugsys TAM-D and TCAM (Harvard Apparatus) respectively.\nExperimental design and administration of drugs. All animal procedures were approved by the Medical University of South Carolina Animal Review Committee and were in accordance with the guidelines for animal use published by the National Institute of Health. […]\nMeasurement of physiological variables. The physiological variables were measured before, during MCA occlusion, at reperfusion and 30 min after reperfusion. The rectal temperature was monitored and maintained at about 37 to 37.6° C. […]\nEvaluation of ischemic infarct and neurological score. […] The infarct area, outlined in white, was acquired by image-analysis software (Photoshop 4.0 Adobe System) and measured by NIH image software. […]"}, "iNOS": {"system": "iNOS", "assay": "LPS-induced iNOS expression and iNOS promoter activity in primary astrocytes (AICAR)", "type": "cell-based, rat", "procedure": "Immunoblot Analysis: Cells were harvested in ice-cold lysis buffer (50 mM Tris-HCl, pH 7.4, containing 50 mM NaCl, 1 mM EDTA, 0.5 mM EGTA, 10% glycerol and protease inhibitor cocktail) and protein was estimated using Bradford reagent (Bio-Rad, USA). Fifty microgram of total protein/lane was separated by SDS-PAGE and blotted to nitrocellulose (Amersham Pharmacia Biotech). Blots were blocked for 1 h in 5% nonfat dry milk-TBS-0.1% Tween 20 and incubated overnight with primary antibody (1:1000) in 5% BSA-TBS-0.1% Tween 20 at 4° C. This was followed by incubation of 1 h with appropriate secondary peroxidase conjugated antibody (1:10,000, Sigma). Immunoreactivity was detected using the enhanced chemiluminescence detection method according to the manufacturer's instructions (Amersham Pharmacia Biotech) and subsequent exposure of the membrane to X-ray film. Antisense experiments: To decrease the levels of endogenous AMPK, astrocytes were pretreated for 48 h with 25 μm (of phosphothiorated antisense (AS) oligonucleotide ([NT]) directly against both the ? α1 and α2 ? subunits of AMPK (Culmsee et al., 2001) ? ? ? missense (MS) oligonucleotide ([NT]) was used in control cultures. Oligonucleotides were transfected with OligofectamineTM reagent as per manufacturer's instructions. Northern blot, gene array analysis and RT-PCR for cytokines expression: Total RNA was extracted with Trizol (Gibco) according to the manufacturer's protocol. Northern blot for iNOS was performed with 15 μg of RNA per reaction as described previously (Pahan et al., 1997). β-actin was used as control for RNA loading. Gene expression array for inflammatory cytokines (TNFα, IL-1β, IL-6 and IFN-γ) was used according to the manufacturer's protocol (Superarray). Signal quantitation was determined using imaging densitomter (Bio-Rad Lab, Hercules, Calif.). For RT-PCR, RNA was isolated from treated rat brain cerebral cortex by extracting in Trizol as above. cDNA was prepared from 5 μg of total RNA using poly dT as a primer and Moloney murine leukemia virus reverse transcriptase (Promega) as per manufacturer's instructions. 2 μl of cDNA was used to amplify the following products [given as product name, expected size, and forward (F) and reverse (R) primers used]: iNOS, 730 bp. ([NT]-1β, 623 bp. ([…]-α, 473 bp. ([…], 528 bp. […] Transcriptional assays: Primary astrocytes or microglial cell line (BV2) were transiently transfected with NF- ? B-or iNOS-luciferase reporter gene with ? -galactosidase in the presence or absence of dominant negative AMPKα2 or HA-IKK ? by lipofectamine-2000 (astrocytes) and lipofectamine-Plus (BV2, Invitrogen) according to the manufacturer instructions. pcDNA3 was used to normalize all groups to equal amounts of DNA. Luciferase activity was determined using a luciferase kit (Promega)."}, "AMPK": {"system": "AMPK", "assay": "Phosphorylation of AMPK and ACC in primary astrocytes (immunoblot)", "type": "cell-based, rat", "procedure": "Immunoblot Analysis: Cells were harvested in ice-cold lysis buffer (50 mM Tris-HCl, pH 7.4, containing 50 mM NaCl, 1 mM EDTA, 0.5 mM EGTA, 10% glycerol and protease inhibitor cocktail) and protein was estimated using Bradford reagent (Bio-Rad, USA). Fifty microgram of total protein/lane was separated by SDS-PAGE and blotted to nitrocellulose (Amersham Pharmacia Biotech). Blots were blocked for 1 h in 5% nonfat dry milk-TBS-0.1% Tween 20 and incubated overnight with primary antibody (1:1000) in 5% BSA-TBS-0.1% Tween 20 at 4° C. This was followed by incubation of 1 h with appropriate secondary peroxidase conjugated antibody (1:10,000, Sigma). Immunoreactivity was detected using the enhanced chemiluminescence detection method according to the manufacturer's instructions (Amersham Pharmacia Biotech) and subsequent exposure of the membrane to X-ray film.\nAntisense experiments: To decrease the levels of endogenous AMPK, astrocytes were pretreated for 48 h with 25 μm (of phosphothiorated antisense (AS) oligonucleotide (5′ […]-3′) directly against both the ? α1 and α2 ? subunits of AMPK (Culmsee et al., 2001) ? ? ? missense (MS) oligonucleotide (5′ […]-3′) was used in control cultures. Oligonucleotides were transfected with Oligofectamine™ reagent as per manufacturer's instructions.\nAMPK and IKKα/ ? assays: AMPK activity was assayed in primary rat astrocytes as described (Kim et al., 2001). […]"}, "[2]": {"details": "X-ALD patients; cited from earlier work"}},
  "data": [
    {"compound": "N[C@@H](CCC(=O)N[C@@H](CS)C(=O)NCC(=O)O)C(=O)O", "note": "[GSH, gamma-glutamylcysteinylglycine]", "values": [
      {"measurement": "protective effect in ischemia", "setting": "[1]", "result": "no protective effect"}
    ]},
    {"compound": "Nc1ncnc2c1c(I)cn2[C@@H]1O[C@H](CO)[C@@H](O)[C@H]1O", "note": "[5-iodotubercidin]", "values": [
      {"measurement": "effect on inhibition induced by AICAR on iNOS protein expression", "setting": "iNOS; adenosine kinase inhibitor with AICAR and LPS, 24 h", "result": "reverse the inhibition"},
      {"measurement": "effect on AICAR induced phosphorylation of AMPK and ACC", "setting": "AMPK; adenosine kinase inhibitor 0.1 μM, 30 min before AICAR 1 mM", "result": "blocked"}
    ]},
    {"compound": "5′ CGCCCGTCGTCGTGCTTCTGC-3′ (phosphorothioate, further chemistry not given here) [antisense (AS), phosphothiorated antisense oligonucleotide against the α1 and α2 subunits of AMPK]", "values": [
      {"measurement": "LPS mediated iNOS protein expression", "setting": "iNOS; AMPK antisense 25 μM, then LPS 1 μg/ml", "result": "significantly induced"},
      {"measurement": "catalytic subunit AMPKα1 level (immunoblot)", "setting": "AMPK; 25 μM antisense, 48 h", "result": "decreased"}
    ]},
    {"compound": "CCCCCCCC/C=C\\CCCCCCCC(=O)OCC(COC(=O)CCCCCCC/C=C\\CCCCCCCC)OC(=O)CCCCCCC/C=C\\CCCCCCCC", "note": "[trioleate]", "values": [
      {"measurement": "reduction of VLCFA", "setting": "[2]", "result": 50, "unit": "%"}
    ]}
  ]
}
